This note sets out measurements from US7087623B2, “Thiazole and other heterocyclic ligands for mammalian dopamine, muscarinic and serotonin receptors and transporters, and methods of use thereof” (Sepracor Inc., priority 2001, dated 2006).

The target in assay [1] is T1, human serotonin 5-HT2A receptor (Homo sapiens, UniProt P28223).
T1 construct: expressed in transfected cells; host or cells: CHO-K1
Description: Radioligand binding assay, human 5-HT2A receptors ([3H]Ketanserin).

Assay [2] has as its target T2, human serotonin 5-HT2C receptor (Homo sapiens, UniProt P28335).
T2 construct: expressed in transfected cells; host or cells: CHO-K1
T2 sequence (P28335 33-458): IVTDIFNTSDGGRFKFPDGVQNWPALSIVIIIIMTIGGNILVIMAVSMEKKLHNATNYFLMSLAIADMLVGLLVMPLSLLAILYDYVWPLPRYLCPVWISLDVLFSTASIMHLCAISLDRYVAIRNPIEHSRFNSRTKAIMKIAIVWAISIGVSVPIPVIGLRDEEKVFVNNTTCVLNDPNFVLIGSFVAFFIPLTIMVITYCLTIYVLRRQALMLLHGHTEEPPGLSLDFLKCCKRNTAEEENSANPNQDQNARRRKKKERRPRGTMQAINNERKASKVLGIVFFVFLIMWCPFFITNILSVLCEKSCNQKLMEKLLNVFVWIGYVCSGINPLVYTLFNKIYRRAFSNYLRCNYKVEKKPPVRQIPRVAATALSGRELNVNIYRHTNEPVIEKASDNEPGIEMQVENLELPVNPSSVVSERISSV
Briefly: Radioligand binding assay, human 5-HT2C receptors ([3H]Mesulergine). A digest of the protocol: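 Membranes from CHO-K1 cells stably expressing human 5-HT2C receptor were prepared in modified Tris-HCl pH 7.7 buffer. Non-specific binding was defined with 1 μM mianserin.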

Assay [3] concerns the target T3, human dopamine D3 receptor (Homo sapiens, UniProt P35462).
T3 construct: expressed in transfected cells; host or cells: CHO
Description: Radioligand binding assay, human dopamine D3 receptors ([3H]Spiperone).

The target in assay [4] is T4, human muscarinic M4 receptor (Homo sapiens, UniProt P08173).
T4 construct: expressed in transfected cells; host or cells: BSR-M4H
T4 sequence (P08173 1-479): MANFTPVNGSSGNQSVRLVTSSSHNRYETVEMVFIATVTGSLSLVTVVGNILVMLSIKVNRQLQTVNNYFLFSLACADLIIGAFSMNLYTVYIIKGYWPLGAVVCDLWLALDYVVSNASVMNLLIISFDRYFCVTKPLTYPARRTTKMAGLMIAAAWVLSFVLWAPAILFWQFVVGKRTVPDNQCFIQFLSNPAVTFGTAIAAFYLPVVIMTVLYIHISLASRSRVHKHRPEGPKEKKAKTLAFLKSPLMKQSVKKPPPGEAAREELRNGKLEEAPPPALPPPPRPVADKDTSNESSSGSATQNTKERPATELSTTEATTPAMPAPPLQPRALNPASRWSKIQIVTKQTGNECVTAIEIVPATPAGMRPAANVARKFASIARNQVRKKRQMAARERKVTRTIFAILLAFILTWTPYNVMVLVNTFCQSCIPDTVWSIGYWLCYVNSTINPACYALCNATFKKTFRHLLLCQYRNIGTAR
Briefly: Binding to human muscarinic M4 receptors ([3H]N-methylscopolamine). As to the method:
This assay measures binding of [^3H]N-methylscopolamine to human muscarinic M4 receptors. BSR-M4H cells transfected with a plasmid encoding the human muscarinic M4 receptor were used to prepare membranes in modified Tris-HCl pH 7.4 buffer using standard techniques. A 5 μg aliquot of membrane was incubated with 0.29 nM [^3H]N-methylscopolamine for 60 minutes at 25° C. Non-specific binding was estimated in the presence of 1 μM atropine. Membranes were filtered and washed 3 times and the filters are counted to determine [^3H]N-methylscopolamine specifically bound. See Buckley, N. J., Bonner, T. I., Buckley, C. M. and Brann, M. R. Antagonist binding properties of five cloned muscarinic receptors expressed in CHO-K1 cells. Mol. Pharmacol. 35: 469–476, 1989.
The human 5-HT2a and 5-HT2b screens were conducted according to Bonhaus, D. W. et al. Br. J. Pharmacol. 1995, 115, 622. The human […], W. A. et al. J. Neurochem. 1997, 69, 1449. The human 5-HT6 screen was conducted according to Monsama, F. J. et al. Mol. Pharmacol. 1993, 43, 320. The assay to human D3 receptors was conducted according to Sokoloff, P. et al. Nature 1990, 347;146. The human dopamine transporter assay was conducted according to Gu, H. et. al. J. Biol. Chem. 1994, 269 (10);7124; and Giros, B. et al. Trends. Pharmacol. Sci. 1993, 14: 43. The human muscarinic M1–M4 screens were conducted according to Buckley N. J. et al. Mol. Pharmacol. 1989, 35:469.
The human dopamine transporter assay was conducted according to Gu, H. et. al. J. Biol. Chem. 1994, 269 (10);7124 and Giros, B. et al. Trends. Pharmacol. Sci. 1993, 14: 43. The human muscarinic M1–M4 screens were conducted according to Buckley N. J. et al. Mol. Pharmacol. 199, 35:469

The mark [5] stands for this setting: human, Example 100 table, read-out: IC50 (nM) 5-HT2A.
Where [6] appears, read: human, Example 100 table, read-out: IC50 (nM) 5-HT2C.
[7] abbreviates: human, Example 100 table, read-out: IC50 (nM) D3.
Where [8] appears, read: human, Example 100 table, read-out: IC50 (nM) M4.
Where [9] appears, read: human 5-HT2a, Example 16 table, read-out: IC50 (nM) 5-HT2a.
Where [10] appears, read: human 5-HT2c, Example 16 table, read-out: IC50 (nM) 5-HT2c.
[11] abbreviates: Example 20 table, read-out: IC50 (nM) Against Human D3 Receptors.
Setting [12] is: human, Example 101 table, read-out: IC50 (nM) M4.

Like-named read-outs stand apart in the source and are kept apart here.

T3 sequence (P35462 whole entry): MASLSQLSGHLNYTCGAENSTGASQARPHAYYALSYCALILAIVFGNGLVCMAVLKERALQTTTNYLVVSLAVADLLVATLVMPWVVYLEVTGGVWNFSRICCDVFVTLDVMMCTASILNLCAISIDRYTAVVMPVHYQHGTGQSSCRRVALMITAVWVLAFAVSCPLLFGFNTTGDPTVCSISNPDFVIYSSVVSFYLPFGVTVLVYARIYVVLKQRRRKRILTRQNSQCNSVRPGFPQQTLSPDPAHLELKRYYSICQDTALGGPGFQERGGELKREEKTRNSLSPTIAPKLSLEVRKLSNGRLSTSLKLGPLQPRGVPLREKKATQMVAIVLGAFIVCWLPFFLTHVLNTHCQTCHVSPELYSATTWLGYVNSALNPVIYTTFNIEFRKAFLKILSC
T1 sequence (P28223 whole entry): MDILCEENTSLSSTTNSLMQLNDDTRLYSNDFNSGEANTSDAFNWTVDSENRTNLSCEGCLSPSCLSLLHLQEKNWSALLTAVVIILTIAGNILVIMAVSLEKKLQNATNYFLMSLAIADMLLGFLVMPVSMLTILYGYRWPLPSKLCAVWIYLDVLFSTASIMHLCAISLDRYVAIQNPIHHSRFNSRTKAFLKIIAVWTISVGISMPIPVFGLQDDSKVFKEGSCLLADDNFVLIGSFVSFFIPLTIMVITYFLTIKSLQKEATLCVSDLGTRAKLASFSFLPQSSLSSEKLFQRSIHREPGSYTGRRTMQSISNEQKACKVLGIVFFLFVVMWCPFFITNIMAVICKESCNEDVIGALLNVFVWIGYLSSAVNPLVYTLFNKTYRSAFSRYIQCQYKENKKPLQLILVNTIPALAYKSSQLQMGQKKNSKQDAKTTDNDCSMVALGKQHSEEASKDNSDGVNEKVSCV

For the compound `CN1CCCC1CCNc1nc(C2(c3ccccc3F)CCCCC2)cs1` (racemic) [Compound 128, {4-[1-(2-fluorophenyl)-cyclohexyl]-thiazol-2-yl}-[2-(1-methyl-pyrrolidin-2-yl)-ethyl]-amine], the IC50 (commonly the concentration that gives 50% inhibition) in assay [1] (setting [5]) is less than 100 nM; in assay [2] (setting [6]) it was less than 10 nM; in assay [3] (setting [7]), less than 100 nM; in assay [4] (setting [8]), less than 1000 nM.
As to `CN1CCCC1CCNc1nc(C2(c3ccccc3F)CCCCC2)cs1` (single isomer, unassigned) [Compound 130, {4-[1-(2-fluorophenyl)-cyclohexyl]-thiazol-2-yl}-[2-(1-methyl-pyrrolidin-2-yl)-ethyl]-amine], the IC50 was less than 100 nM in assay [1] (setting [5]), less than 10 nM in assay [2] (setting [6]), less than 100 nM in assay [3] (setting [7]) and greater than 1000 nM in assay [4] (setting [8]).
As for `CN1CCN(c2nc(C3(c4csc5ccc(Cl)cc45)CCOCC3)cs2)CC1` [Compound 36], the half-maximal inhibitory concentration (IC50) in assay [1] (setting [9]) is greater than 1000 nM; in assay [2] (setting [10]), less than 1000 nM; in assay [3] (setting [11]), less than 1000 nM; in assay [4] (setting [12]) it was greater than 1000 nM.
Take `Clc1ccc(C2(c3csc(N4CCNCC4)n3)CCOCC2)cc1` [Compound 37]: the IC50 in assay [1] (setting [9]), in assay [2] (setting [10]), in assay [3] (setting [11]) and in assay [4] (setting [12]) was less than 1000 nM in each case.
Consider `CN1CCN(c2nc(C3(c4ccccc4)CCOCC3)cs2)CC1` [Compound 59], for which the IC50 in assay [1] (IC50 (nM) 5-HT2a, human 5-HT2a, Example 16 table) is greater than 1000 nM; in assay [2] (IC50 (nM) 5-HT2c, human 5-HT2c, Example 16 table) it was greater than 1000 nM; in assay [3] (IC50 (nM) Against Human D3 Receptors, Example 20 table) it was greater than 1000 nM; in assay [4], greater than 1000 nM.
For the compound `CN1CCN(c2nc(C3(c4cccc(Cl)c4)CCOCC3)cs2)CC1` [Compound 63], the IC50 was greater than 1000 nM in assay [1] (setting [9]), less than 1000 nM in assay [2] (setting [10]), less than 1000 nM in assay [3] (setting [11]) and greater than 1000 nM in assay [4] (setting [12]).
Consider `CN1CCN(c2nc(C3(c4ccccc4F)CCCCC3)cs2)CC1` [Compound 83], for which the IC50 was greater than 1000 nM in assay [1] (setting [9]), less than 100 nM in assay [2] (setting [10]), less than 100 nM in assay [3] (setting [11]) and less than 1000 nM in assay [4] (setting [12]).
For `CN1CCN(c2nc(C3(c4ccccc4F)CCCC3)cs2)CC1` [Compound 93], the half-maximal inhibitory concentration (IC50) in assay [1] (setting [9]) is less than 1000 nM; in assay [2] (setting [10]), less than 100 nM; in assay [3] (setting [11]), less than 1000 nM; in assay [4] (setting [12]), less than 500 nM.
Regarding `CN1CCN(c2nc(C3(c4ccccc4F)CCOCC3)cs2)CC1` [Compound 112], the IC50 in assay [3] (setting [7]) was less than 1000 nM; in assay [4] (setting [8]), greater than 1000 nM.
